According to patent publication US20240299412A1, “DRUG FORMULATIONS OF 4-(3,3-DIFLUORO-2,2-DIMETHYL-PROPANOYL) -3,5-DIHYDRO-2H-PYRIDO[3,4-f][1,4]OXAZEPINE-9-CARBONITRILE” (Genzyme Corporation, priority 2023, published 2024):
In brackets after ≈: the same amount, converted by molar mass.

Assays:
Format in all cases: physicochemical
[1] = Kinetic solubility in bio-relevant media and H2O; conditions: thermodynamic from solid, 37° C., Turbid
Experimental: Solids were suspended in FaSSIF, FeSSIF, SGF and H2O with target conc. of ˜10 mg/mL. The suspensions were agitated on a rolling incubator at 25 rpm (in the incubator set at 37° C.) for 1, 4 and 24 hrs. At each time point, 1 mL of the suspension was pipetted out for centrifugation at 15000 rpm (3 min) and filtration through 0.45 μm membrane to obtain supernatant for HPLC solubility and pH tests, the residual solids were analyzed by XRPD.

[2] = 24-Hrs solubility in pH buffers; conditions: for solubility at 24 h: aqueous buffer, thermodynamic from solid, Turbid; for Final Form: residual solid; for solubility at 24 h / Final Form: 24 hrs
[3] = Solution stability in pH buffers; conditions: 37° C.; for Purity vs. Initial (%): ~0.5 mg/mL, Clear
Experimental: Solution stability study was performed in pH 2.0/4.0/6.0/7.0 (24 hrs) and pH 8.0 (24 hrs and 96 hrs) buffers. Solids were dissolved with pH buffers with target conc. of ˜0.5 mg/mL to form clear solutions and stored at 37° C. for 24 hrs or 96 hrs.

[4] = pH 7.0 (50 mM Phosphate), 24 hrs
[5] = pH 8.0 (50 mM Phosphate), 24 hrs
[6] = pH 8.0 (50 mM Phosphate), 96 hrs

CC(C)(C(=O)N1CCOc2c(C#N)cncc2C1)C(F)F [Form A, 4-(3,3-difluoro-2,2-dimethyl-propanoyl)-3,5-dihydro-2H-pyrido[3,4-f][1,4]oxazepine-9-carbonitrile]
solubility at 24 h ([1]; FaSSIF (pH 6.5), final pH 6.6): 1200 µg/mL (≈ 4.06 mM)
solubility at 1 h ([1]; FeSSIF (pH 5.0), final pH 5.6): 1100 µg/mL (≈ 3.73 mM)
solubility at 4 h ([1]; FeSSIF (pH 5.0), final pH 5.6): 1200 µg/mL (≈ 4.06 mM)
solubility at 24 h ([1]; FeSSIF (pH 5.0), final pH 5.6): 1200 µg/mL (≈ 4.06 mM)
solubility at 1 h ([1]; water, H2O (pH 6.5), final pH 8.5): 1100 µg/mL (≈ 3.73 mM)
solubility at 4 h ([1]; water, H2O (pH 6.5), final pH 8.4): 1100 µg/mL (≈ 3.73 mM)
solubility at 24 h ([1]; water, H2O (pH 6.5), final pH 8.7): 1100 µg/mL (≈ 3.73 mM)
solubility at 24 h ([2]; 50 mM HCl-KCl buffer, pH 2.0 (50 mM HCl—KCl), final pH 2.3): 1800 µg/mL (≈ 6.1 mM)
solubility at 24 h ([2]; 50 mM citrate buffer, pH 4.0 (50 mM Citrate), final pH 4.1): 840 µg/mL (≈ 2.84 mM)
solubility at 24 h ([2]; 50 mM citrate buffer, pH 6.0 (50 mM Citrate), final pH 5.9): 750 µg/mL (≈ 2.54 mM)
solubility at 24 h ([2]; 50 mM phosphate buffer, pH 7.0 (50 mM Phosphate), final pH 6.9): 900 µg/mL (≈ 3.05 mM)
solubility at 24 h ([2]; 50 mM phosphate buffer, pH 8.0 (50 mM Phosphate), final pH 7.8): 810 µg/mL (≈ 2.74 mM)
form change after equilibrium solubility evaluation ([2]; pH buffers): no form change
Final Form ([2]; pH 2.0 (50 mM HCl—KCl)): Form A
Final Form ([2]; pH 4.0 (50 mM Citrate)): Form A
Final Form ([2]; pH 6.0 (50 mM Citrate)): Form A
Final Form ([2]; pH 7.0 (50 mM Phosphate)): Form A
Final Form ([2]; pH 8.0 (50 mM Phosphate)): Form A
API (RRT 1.00) % Area ([3]; pH 2.0 (50 mM HCl—KCl), 24 hrs): 84.93 % Area
Imp. 1 (RRT 0.66) % Area ([3]; pH 2.0 (50 mM HCl—KCl), 24 hrs): 0.15 % Area
Imp. 1 (RRT 0.70) % Area ([3]; pH 2.0 (50 mM HCl—KCl), 24 hrs): 0.67 % Area
Imp. 1 (RRT 0.76) % Area ([3]; pH 2.0 (50 mM HCl—KCl), 24 hrs): 14.25 % Area
Imp. 1 (RRT 1.05) % Area ([3]; pH 2.0 (50 mM HCl—KCl), 24 hrs): — (—: <0.05 area %)
Purity vs. Initial (%) ([3]; pH 2.0 (50 mM HCl—KCl), 24 hrs): 85.1%
degradation in solution ([3]; pH 2.0 and pH 4.0 buffers, 24 hrs): Degradation was observed
API (RRT 1.00) % Area ([3]; pH 4.0 (50 mM Citrate), 24 hrs): 98.42 % Area
Imp. 1 (RRT 0.66) % Area ([3]; pH 4.0 (50 mM Citrate), 24 hrs): 0.15 % Area
Imp. 1 (RRT 0.70) % Area ([3]; pH 4.0 (50 mM Citrate), 24 hrs): — (—: <0.05 area %)
Imp. 1 (RRT 0.76) % Area ([3]; pH 4.0 (50 mM Citrate), 24 hrs): 0.38 % Area
Imp. 1 (RRT 1.05) % Area ([3]; pH 4.0 (50 mM Citrate), 24 hrs): 0.06 % Area
Purity vs. Initial (%) ([3]; pH 4.0 (50 mM Citrate), 24 hrs): 98.5%
API (RRT 1.00) % Area ([3]; pH 6.0 (50 mM Citrate), 24 hrs): 99.75 % Area
Imp. 1 (RRT 0.66) % Area ([3]; pH 6.0 (50 mM Citrate), 24 hrs): 0.13 % Area
Imp. 1 (RRT 0.70) % Area ([3]; pH 6.0 (50 mM Citrate), 24 hrs): — (—: <0.05 area %)
Imp. 1 (RRT 0.76) % Area ([3]; pH 6.0 (50 mM Citrate), 24 hrs): 0.06 % Area
Imp. 1 (RRT 1.05) % Area ([3]; pH 6.0 (50 mM Citrate), 24 hrs): 0.06 % Area
Purity vs. Initial (%) ([3]; pH 6.0 (50 mM Citrate), 24 hrs): 99.8%
API (RRT 1.00) % Area [3, 4]: 99.78 % Area
Imp. 1 (RRT 0.66) % Area [3, 4]: 0.15 % Area
Imp. 1 (RRT 0.70) % Area [3, 4]: — (—: <0.05 area %)
Imp. 1 (RRT 0.76) % Area [3, 4]: — (—: <0.05 area %)
Imp. 1 (RRT 1.05) % Area [3, 4]: 0.07 % Area
Purity vs. Initial (%) [3, 4]: 99.9%
API (RRT 1.00) % Area [3, 5]: 99.81 % Area
Imp. 1 (RRT 0.66) % Area [3, 5]: 0.13 % Area
Imp. 1 (RRT 0.70) % Area [3, 5]: — (—: <0.05 area %)
Imp. 1 (RRT 0.76) % Area [3, 5]: — (—: <0.05 area %)
Imp. 1 (RRT 1.05) % Area [3, 5]: 0.06 % Area
Purity vs. Initial (%) [3, 5]: 100.0%
API (RRT 1.00) % Area [3, 6]: 99.83 % Area
Imp. 1 (RRT 0.66) % Area [3, 6]: 0.13 % Area
Imp. 1 (RRT 0.70) % Area [3, 6]: — (—: <0.05 area %)
Imp. 1 (RRT 0.76) % Area [3, 6]: — (—: <0.05 area %)
Imp. 1 (RRT 1.05) % Area [3, 6]: 0.04 % Area
Purity vs. Initial (%) [3, 6]: 100.0%
